Assay results: US20230227427A1, “IL-17A MODULATORS” (SANOFI, priority 2010, published 2023)

Target: T1, human recombinant IL-17A (Homo sapiens, UniProt Q16552)
T1 construct: purchased R&D Systems 7955-IL/CF
T1 sequence (Q16552 24-155): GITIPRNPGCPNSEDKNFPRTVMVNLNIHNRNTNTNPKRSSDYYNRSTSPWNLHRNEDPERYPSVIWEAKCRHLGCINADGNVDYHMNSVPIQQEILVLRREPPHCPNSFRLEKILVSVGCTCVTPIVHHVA
Test: IL-17A AlphaLISA assay (block binding of IL-17A to its receptor IL-17RA)
Conditions: compounds pre-incubated with the IL-17A for 30 min (indicated by * in Table A)
Method: The ability of the compounds to block binding of IL-17A to its receptor, IL-17RA, was analysed in a competition assay using AlphaLISA technology (Perkin Elmer). The assay is a bead based AlphaLISA where the IL-17RA is captured on the acceptor bead via an Fc tag and IL-17A is captured on the streptavidin donor bead via a biotinylated anti-IL17A antibody.
Assay buffer was prepared by adding 0.05% Tween-20 (v/v) and 0.1% BSA to Phosphate Buffered Saline (PBS). The assay was carried out in 384-well white low volume plates (Corning 4512). 10 µL of a 7.5 nM stock of human recombinant IL-17A (R&D Systems 7955-IL/CF) diluted in assay buffer was dispensed into the assay plate and compounds or DMSO vehicle control were added in a volume of 75 nL using a D300 dispenser (Hewlett Packard). The compounds were pre-incubated with the IL-17A for 24 h at room temperature (or for 30 min, where indicated by * in Table A below) prior to addition of 5 μL of a 5 nM stock of human recombinant IL-17RA/Fc chimera (R&D Systems 177-IR-100) diluted in assay buffer. The IL-17A was incubated with the receptor for a further 90 minutes at room temperature before addition of 5 μL of a mixture of anti-human Fc IgG acceptor beads (75 μg/mL, Perkin Elmer AL103C) and anti-IL-17A biotin conjugated antibody (5 nM, Enzo Life Sciences, ENZ-ABS278-0100) in assay buffer. After a further 30 min incubation at room temperature, 5 μL of streptavidin donor beads ([…], Perkin Elmer 6760002S) were added and the plate was incubated for 3 h in the dark.
The luminescence signal was measured using an Enspire plate reader (Perkin Elmer) with excitation at 680 nm and emission at 615 nm. Data were analysed using GraphPad Prism and fitted to a 4-parameter logistic equation. The IC50 values were calculated using the DMSO vehicle as the negative control and a high concentration (6 μM) of a reference IL-17A inhibitor as the positive control.
Activity of the Example compounds is reported as a PIC50 value in Table A.

Row | SMILES | AlphaLISA pIC50
1 | CCn1nccc1C(=O)N[C@H](C(=O)Nc1cnc(-c2c(C)cnn2C)c(F)c1)[C@H]1CC[C@H](C)CC1 [Example 189, N—((S)-2-((6-(1,4-dimethyl-1H-pyrazol-5-yl)-5-fluoropyridin-3-yl)amino)-1-((1r,4S)-4-methylcyclohexyl)-2-oxoethyl)-1-ethyl-1H-pyrazole-5-carboxamide] | 6.8*

Same assay, conditions: compounds pre-incubated with the IL-17A for 30 min (indicated by * in Table A); read-out: AlphaLISA pIC50 (converted)

Row | SMILES | IC50
2 | Cc1noc(C)c1-c1ccc(NC(=O)[C@@H](NC(=O)c2ccc3n2CCNC3)C2CCCCC2)nc1 [Example 130, (S)—N-(1-Cyclohexyl-2-((5-(3,5-dimethylisoxazol-4-yl)pyridin-2-yl)amino)-2-oxoethyl)-1,2,3,4-tetrahydropyrrolo[1,2-a]pyrazine-6-carboxamide] | 316 nM
3 | Cc1cnn(C)c1-c1ccc(NC(=O)C(NC(=O)c2ccnn2C)C2CC3CCC2C3)nc1 (stereo not shown) [Example 184, N-(1-(bicyclo[2.2.1]heptan-2-yl)-2-((5-(1,4-dimethyl-1H-pyrazol-5-yl)pyridin-2-yl)amino)-2-oxoethyl)-1-methyl-1H-pyrazole-5-carboxamide] | 251 nM
4 | Cc1n[nH]c(C)c1-c1ccc(NC(=O)[C@@H](NC(=O)c2ccnn2C)C2CCCCCC2)cn1 [Example 218, (S)—N-(1-cycloheptyl-2-((6-(3,5-dimethyl-1H-pyrazol-4-yl)pyridin-3-yl)amino)-2-oxoethyl)-1-methyl-1H-pyrazole-5-carboxamide] | 158 nM
5 | Cc1cnn(C)c1-c1cnc(NC(=O)[C@@H](NC(=O)c2ccnn2C)C2CCCCCC2)nc1 [Example 165, (S)—N-(1-cycloheptyl-2-((5-(1,4-dimethyl-1H-pyrazol-5-yl)pyrimidin-2-yl)amino)-2-oxoethyl)-1-methyl-1H-pyrazole-5-carboxamide] | 631 nM
6 | CCc1nocc1C(=O)N[C@H](C(=O)Nc1ccc(-c2c(C)cnn2C)cn1)C1CCCCC1 [Example 178, (S)—N-(1-cyclohexyl-2-((5-(1,4-dimethyl-1H-pyrazol-5-yl)pyridin-2-yl)amino)-2-oxoethyl)-3-ethylisoxazole-4-carboxamide] | 79.4 nM
7 | Cc1nocc1C(=O)N[C@H](C(=O)Nc1ccc(-c2c(C)noc2C)cn1)C1CCCCCC1 [Example 116, (S)—N-(1-Cycloheptyl-2-((5-(3,5-dimethylisoxazol-4-yl)pyridin-2-yl)amino)-2-oxoethyl)-3-methylisoxazole-4-carboxamide] | 63.1 nM
8 | Cc1cncc(C)c1-c1ccc(NC(=O)[C@@H](NC(=O)c2ccnn2C)C2CCC(C)(C)CC2)cc1 (single isomer, unassigned) [Example 100] | 200 nM
9 | Cc1cnn(C)c1-c1ccc(NC(=O)[C@@H](NC(=O)c2ccnn2C)[C@H]2CC[C@H](C)CC2)cn1 [Example 145, N—((S)-2-((6-(1,4-dimethyl-1H-pyrazol-5-yl)pyridin-3-yl)amino)-1-((1r,4S)-4-methylcyclohexyl)-2-oxoethyl)-1-methyl-1H-pyrazole-5-carboxamide] | 398 nM
10 | Cc1nsc(C)c1-c1ccc(NC(=O)[C@@H](NC(=O)c2ccnn2C)[C@H]2CC[C@H](C)CC2)nc1 [Example 196, N—((S)-2-((5-(3,5-dimethylisothiazol-4-yl)pyridin-2-yl)amino)-1-((1r,4S)-4-methylcyclohexyl)-2-oxoethyl)-1-methyl-1H-pyrazole-5-carboxamide] | 251 nM
11 | CCc1nocc1C(=O)N[C@H](C(=O)Nc1ccc(-c2c(Cl)cnn2C)cn1)C1CCCCCC1 [Example 175, (S)—N-(2-((5-(4-chloro-1-methyl-1H-pyrazol-5-yl)pyridin-2-yl)amino)-1-cycloheptyl-2-oxoethyl)-3-ethylisoxazole-4-carboxamide] | 31.6 nM
12 | CCn1nccc1C(=O)N[C@H](C(=O)Nc1cnc(-c2c(C)cnn2C)nc1)[C@H]1CC[C@H](C)CC1 [Example 147, N—((S)-2-((2-(1,4-dimethyl-1H-pyrazol-5-yl)pyrimidin-5-yl)amino)-1-((1r,4S)-4-methylcyclohexyl)-2-oxoethyl)-1-ethyl-1H-pyrazole-5-carboxamide] | 398 nM
13 | Cc1noc(C)c1-c1ccc(NC(=O)[C@@H](NC(=O)c2ccnn2C)C2CCCCC2)nc1 [Example 129, (S)—N-(1-Cyclohexyl-2-((5-(3,5-dimethylisoxazol-4-yl)pyridin-2-yl)amino)-2-oxoethyl)-1-methyl-1H-pyrazole-5-carboxamide] | 316 nM
14 | CCc1nocc1C(=O)N[C@H](C(=O)Nc1ncc(-c2c(C)noc2C)cc1F)C1CCCCCC1 [Example 164, (S)—N-(1-cycloheptyl-2-((5-(3,5-dimethylisoxazol-4-yl)-3-fluoropyridin-2-yl)amino)-2-oxoethyl)-3-ethylisoxazole-4-carboxamide] | 63.1 nM
15 | Cc1cc(-c2ccc(NC(=O)[C@@H](NC(=O)c3ccnn3C)[C@H]3CC[C@H](C)CC3)nc2)c(C)cn1 [Example 153, N—((S)-2-((2′,5′-dimethyl-[3,4′-bipyridin]-6-yl)amino)-1-((1r,4S)-4-methylcyclohexyl)-2-oxoethyl)-1-methyl-1H-pyrazole-5-carboxamide] | 398 nM
16 | Cn1nccc1C(=O)N[C@H](C(=O)Nc1ccc(-c2c(O)cnn2C)cn1)C1CCCCCC1 [Example 166, (S)—N-(1-cycloheptyl-2-((5-(4-hydroxy-1-methyl-1H-pyrazol-5-yl)pyridin-2-yl)amino)-2-oxoethyl)-1-methyl-1H-pyrazole-5-carboxamide] | 631 nM

Same assay, conditions: compounds pre-incubated with the IL-17A for 24 h at room temperature; read-out: AlphaLISA pIC50 (converted)

Row | SMILES | IC50
17 | Cc1cc(NC(=O)[C@@H](NC(=O)c2ccnn2C)C(c2ccccc2)c2ccccc2)ccc1-c1ccncc1 [Example 45, (S)-1-methyl-N-(1-((3-methyl-4-(pyridin-4-yl)phenyl)amino)-1-oxo-3,3-diphenylpropan-2-yl)-1H-pyrazole-5-carboxamide] | 100 nM
18 | Cn1nccc1C(=O)N[C@H](C(=O)Nc1ccc(C2=CCOCC2)cc1)C(c1ccccc1)c1ccccc1 [Example 81, (S)—N-(1-((4-(3,6-dihydro-2H-pyran-4-yl)phenyl)amino)-1-oxo-3,3-diphenylpropan-2-yl)-1-methyl-1H-pyrazole-5-carboxamide] | 12.6 nM
19 | COc1cnccc1-c1ccc(NC(=O)[C@@H](NC(=O)c2ccnn2C)C(c2ccccc2)c2ccccc2)cc1F [Example 24, (S)—N-(1-((3-fluoro-4-(3-methoxypyridin-4-yl)phenyl)amino)-1-oxo-3,3-diphenylpropan-2-yl)-1-methyl-1H-pyrazole-5-carboxamide] | 31.6 nM
20 | COc1cnccc1-c1ccc(NC(=O)[C@@H](NC(=O)c2ccnn2C)C(c2ccccc2)c2ccccc2)cc1OC [Example 47, (S)—N-(1-((3-methoxy-4-(3-methoxypyridin-4-yl)phenyl)amino)-1-oxo-3,3-diphenylpropan-2-yl)-1-methyl-1H-pyrazole-5-carboxamide] | 25.1 nM
21 | Cc1c[n+]([O-])cc(C)c1-c1ccc(NC(=O)[C@@H](NC(=O)c2ccnn2C)C(c2ccccc2)c2ccccc2)cc1 [Example 26, (S)-3,5-dimethyl-4-(4-(2-(1-methyl-1H-pyrazole-5-carboxamido)-3,3-diphenylpropanamido)phenyl)pyridine 1-oxide] | 7.94 nM
22 | Cn1nccc1C(=O)N[C@H](C(=O)Nc1ccc(-c2ccncc2C(F)(F)F)cc1)C(c1ccccc1)c1ccccc1 [Example 5, (S)-1-methyl-N-(1-oxo-3,3-diphenyl-1-((4-(3-(trifluoromethyl)pyridin-4-yl)phenyl)amino)propan-2-yl)-1H-pyrazole-5-carboxamide] | 63.1 nM
